Read-outs that look alike come from different tables or passages of the source.
Legend:
[1] = the molecule shown is the open-chain precursor, rcm bond, 38-membered ring, DCE, 70.0 °C
[2] = molecular target: T1, N-His-Tb-BIR3(241-356, XIAP) (Homo sapiens, UniProt P98170); assay: XIAP-BIR3 SMAC Peptide Fluorescence Polarization Assay (FPA); format: binding
T1 construct: additions of N-His-Tb-BIR3(241-356, XIAP), fluoresceinated modified SMAC peptide; Tb (meaning not explained; sits between His tag and BIR3) (N)
Procedure: A. XIAP-BIR3 SMAC Peptide Fluorescence Polarization Assay (FPA) Assays were performed in black, flat-bottom, 384-well plates. The final assay volume was 50 μL prepared from additions of N-His-Tb-BIR3(241-356, XIAP), fluoresceinated modified SMAC peptide, and test compounds in assay buffer consisting of 20 mM Sodium Phosphate, 1 mM EDTA, 50 mM NaCl, and 0.05% Pluronic F68. The reaction was incubated at room temperature for 60 minutes and fluorescence polarization of the reaction was detected on the LJL Plate Reader. Inhibition data were calculated from mP values generated by the no protein control reactions for 100% inhibition and vehicle-only reactions for 0% inhibition. The final concentration of reagents in the assay was 130 nM N-His-Tb-BIR3(241-356, XIAP), 1.4 nM fluoresceinated modified SMAC peptide, and 1% DMSO. Dose response curves were generated to determine the concentration required for inhibiting 50% of polarization activity (IC50). Compounds were dissolved at 10 mM in dimethylsulfoxide (DMSO) and evaluated at eleven concentrations. IC50 values were derived by non-linear regression analysis.

His-BIR3 (241-356, XIAP) = molecular target: T2, His-BIR3 (241-356, XIAP) (Homo sapiens, UniProt P98170); assay: XIAP-BIR3/SMAC Homogeneous Time Resolved Fluorescence (HTRF) Assay; format: binding; settings: fluorescein labeled SMAC peptide
T2 construct: additions of His-BIR3 (241-356, XIAP), fluorescein labeled SMAC peptide

[3] = molecular target: T3, His-BIR2 (124-240/C202A/C213G) (Homo sapiens, UniProt P98170, C202A/C213G); assay: XIAP-BIR2/SMAC Peptide AlphaScreen Assay; format: binding; settings: biotinylated SMAC peptide, read-out: BIR2 ALPHA IC50
T3 construct: additions of His-BIR2 (124-240/C202A/C213G), Biotinylated SMAC peptide
Procedure: C. XIAP-BIR2/SMAC Peptide AlphaScreen Assay
Assays were performed in white, flat-bottom, 384-well ProxiPlates (Perkin Elmer). […]. The reaction was incubated at room temperature for 60 minutes. After 60 minutes, 2.5 μL of Alphascreen detection reagent (Perkin Elmer) was added to the reaction mixture and incubated at room temperature in the dark for 120 minutes. The Alphascreen signal generated by the reaction was detected on the Envision Plate Reader. Inhibition data were calculated from an Alphascreen signal generated by the no protein control reactions for 100% inhibition and vehicle-only reactions for 0% inhibition. […]
Biotinylated SMAC peptide, 4 μg/mL Alphascreen detection reagents, and 0.5% DMSO. Dose response curves were generated to determine the concentration required for inhibiting 50% of the activity (IC50). Compounds were dissolved at 10 mM in dimethylsulfoxide (DMSO) and evaluated at eleven concentrations. IC50 values were derived by non-linear regression analysis.

[4] = molecular target: T4, His-BIR2-3 (125-356, C202A/C213G, XIAP) (Homo sapiens, UniProt P98170, C202A/C213G); assay: XIAP-BIR2-3 Dimeric SMAC Peptide Homogeneous Time Resolved Fluorescence (HTRF) Assay; format: binding; settings: fluorescein labeled dimeric SMAC peptide
T4 construct: additions of His-BIR2-3 (125-356, C202A/C213G, XIAP), fluorescein labeled dimeric SMAC peptide

[5] = the molecule shown is the open-chain precursor, rcm bond

T3 sequence (P98170 124-240 C202A/C213G): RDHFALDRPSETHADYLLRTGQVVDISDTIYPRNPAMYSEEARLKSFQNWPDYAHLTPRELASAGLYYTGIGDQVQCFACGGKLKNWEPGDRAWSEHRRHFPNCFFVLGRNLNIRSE
T1 sequence (P98170 241-356): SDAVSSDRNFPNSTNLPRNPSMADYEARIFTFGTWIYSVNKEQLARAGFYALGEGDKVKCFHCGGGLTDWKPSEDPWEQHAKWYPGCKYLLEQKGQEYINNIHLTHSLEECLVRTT
T2 sequence (P98170 241-356): as above
T4 sequence (P98170 125-356 C202A/C213G): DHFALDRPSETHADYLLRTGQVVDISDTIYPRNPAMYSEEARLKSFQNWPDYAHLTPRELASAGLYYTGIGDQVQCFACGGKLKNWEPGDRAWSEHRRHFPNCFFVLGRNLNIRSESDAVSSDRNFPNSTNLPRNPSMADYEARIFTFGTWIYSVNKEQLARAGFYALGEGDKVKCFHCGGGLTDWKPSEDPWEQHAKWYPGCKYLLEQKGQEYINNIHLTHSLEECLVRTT

For “(S)-2-((S)-2-((2S,4S)-4-(4-((4-((S)-2-((S)-2-((2S,4S)-4-Allyl-1-((S)-2-4S)-2-((tert-butoxycarbonyl)(methyl)amino)propanamido)-3,3-dimethylbutanoyl)pyrrolidine-2-carboxamido)-3-(naphthalen-2-yl)propanamido)-3-(methylsulfonamido)-3-oxopropyl)phenoxy)methyl)-1H-1,2,3-triazol-1-yl)-1-((S)-2-((S)-2-((tert-butoxycarbonyl)(methyl)amino)propanamido)-3,3-dimethylbutanoyl)pyrrolidine-2-carboxamido)-3-(naphthalen-2-yl)propanamido)-3-(4-(allyloxy)phenyl)propanoic acid”, the ring closure, yield after HPLC ([1]; Grubbs II (2 portions), 2.9 mM) was 49%.
In the case of “(S)-tert-Butyl 2-((S)-2-((2S,4S)-4-allyl-1-((S)-2-((S)-2-((tert-butoxycarbonyl)(methyl)amino)propanamido)-3,3-dimethylbutanoyl)pyrrolidine-2-carboxamido)-3-(naphthalen-2-yl)propanamido)-3-(4-((1-((3S,5S)-5-(((S)-1-(((S)-2-(4-(allyloxy)phenyl)-1-(5-oxo-4,5-dihydro-1,3,4-oxadiazol-2-yl)ethyl)amino)-3-(naphthalen-2-yl)-1-oxopropan-2-yl)carbamoyl)-1-((S)-2-((S)-2-((tert-butoxycarbonyl)(methyl)amino)propanamido)-3,3-dimethylbutanoyl)pyrrolidin-3-yl)-1H-1,2,3-triazol-4-yl)methoxy)phenyl)propanoate”, the ring closure, yield after HPLC ([1]; Hoveyda-Grubbs II (10 mol%), 5.2 mM) is reported as 52%.
With `CNC(C)C(=O)NC(C(=O)N1CC2CC1C(=O)NC(Cc1ccc3ccccc3c1)C(=O)NC(C(=O)O)Cc1ccc(cc1)OCC=CCOC1CC(C(=O)NC(Cc3ccc4ccccc4c3)C(=O)NC(C(=O)O)CCC(=O)N2)N(C(=O)C(NC(=O)C(C)NC)C(C)(C)C)C1)C(C)(C)C` (stereo not drawn) [Example 33] the IC50 ([2]; read-out: BIR3 FPA IC50, fluorescence polarization, fluoresceinated modified SMAC peptide) was 31.6 nM, the IC50 (His-BIR3 (241-356, XIAP)) was 84.7 nM and the IC50 [3] was 21.6 nM. The IC50 [4] was 9.5 nM.
For “(S)-Methyl 2-((S)-2-((2S,4S)-4-allyl-1-((S)-2-((S)-2-((tert-butoxycarbonyl)(methyl)amino)propanamido)-3,3-dimethylbutanoyl)pyrrolidine-2-carboxamido)-3-(naphthalen-2-yl)propanamido)-3-(4-(((E)-4-((3S,5S)-5-(((S)-1-(((S)-3-(4-(allyloxy)phenyl)-1-(cyclopropanesulfonamido)-1-oxopropan-2-yl)amino)-3-(naphthalen-2-yl)-1-oxopropan-2-yl)carbamoyl)-1-((S)-2-((S)-2-((tert-butoxycarbonyl)(methyl)amino)propanamido)-3,3-dimethylbutanoyl)pyrrolidin-3-yl)but-2-en-1-yl)oxy)phenyl)propanoate”, the ring closure, isolated yield ([5]; 38-membered ring, Grubbs I (2 portions), DCE, 1.1 mM, 55.0 °C) was 64%.
Work on “(S)-tert-Butyl 2-((S)-2-((2S,4S)-4-allyl-1-((S)-2-((S)-2-((tert-butoxycarbonyl)(methyl)amino)propanamido)-3,3-dimethylbutanoyl)pyrrolidine-2-carboxamido)-3-(naphthalen-2-yl)propanamido)-3-(4-((1-((3R,5S)-5-(((S)-1-(((S)-2-(4-(allyloxy)phenyl)-1-(1-trityl-1H-tetrazol-5-yl)ethyl)amino)-3-(naphthalen-2-yl)-1-oxopropan-2-yl)carbamoyl)-1-((S)-2-((S)-2-((tert-butoxycarbonyl)(methyl)amino)propanamido)-3,3-dimethylbutanoyl)pyrrolidin-3-yl)-1H-1,2,3-triazol-4-yl)methoxy)phenyl)propanoate” yielded a ring closure, isolated yield ([5]; 38-membered ring, Hoveyda-Grubbs II (2 portions), DCE, 2.34 mM, 70.0 °C) of 48%.
With “(S)-tert-butyl 2-((S)-2-((2S,4S)-4-((5-((4-((S)-2-((S)-2-((2S,4S)-4-allyl-1-((S)-2-((S)-2-((tert-butoxycarbonyl)(methyl)amino)propanamido)-3,3-dimethylbutanoyl)pyrrolidine-2-carboxamido)-3-(naphthalen-2-yl)propanamido)-3-(cyclopropanesulfonamido)-3-oxopropyl)phenoxy)methyl)-1H-1,2,3-triazol-1-yl)-1-((S)-2-((S)-2-((tert-butoxycarbonyl)(methyl)amino)propanamido)-3,3-dimethylbutanoyl)pyrrolidine-2-carboxamido)-3-(naphthalen-2-yl)propanamido)-3-(4-(allyloxy)phenyl)propanoate” the ring closure, isolated yield ([5]; 37-membered ring, 2 steps) was 2%.
For `CN[C@@H](C)C(=O)N[C@H](C(=O)N1C[C@@H]2C[C@H]1C(=O)N[C@@H](Cc1ccc3ccccc3c1)C(=O)N[C@H](C(=O)O)C/C=C/CO[C@H]1C[C@@H](C(=O)N[C@@H](Cc3ccc4ccccc4c3)C(=O)N[C@H](C(=O)O)CC(=O)N2)N(C(=O)[C@@H](NC(=O)[C@H](C)NC)C(C)(C)C)C1)C(C)(C)C` [Example 43], the IC50 [2] was 74.1 nM and the IC50 [3] was 147 nM.
In the case of “(S)-tert-Butyl 2-((S)-2-((2S,4S)-4-(4-((4-((S)-2-((S)-2-((2S,4S)-4-allyl-1-((S)-2-((S)-2-((tert-butoxycarbonyl)(methyl)amino)propanamido)-3,3-dimethylbutanoyl)pyrrolidine-2-carboxamido)-3-(naphthalen-2-yl)propanamido)-3-(cyclopropanesulfonamido)-3-oxopropyl)phenoxy)methyl)-1H-1,2,3-triazol-1-yl)-1-((S)-2-((S)-2-((tert-butoxycarbonyl)(methyl)amino)propanamido)-3,3-dimethylbutanoyl)pyrrolidine-2-carboxamido)-3-(naphthalen-2-yl)propanamido)-3-(4-(allyloxy)phenyl)propanoate”, the ring closure, yield after HPLC ([1]; Hoveyda-Grubbs II (10 mol%), 3.5 mM) is reported as 75%.

— patent publication US20140135270A1, “MACROCYCLIC COMPOUNDS FOR INHIBITION OF INHIBITORS OF APOPTOSIS” (Ensemble Therapeutics Corp., priority 2012, published 2014)
